Measurements as given in patent US11440896B2, “Aminoalkyl compound” (Daiichi Sankyo Company, Limited, priority 2018, dated 2022).

Assays:
mice (C57BL/6JJmsSlc) = assay: Analgesic score by Tail Flick test in mice; assay type: in vivo; conditions: Mus musculus, sc, subcutaneous administration in Captisol, dose with an analgesic score of 50%
Procedure: A Tail Flick analgesic effect metering device (Ugo Basile) and adult mice (C57BL/6JJmsSlc, Japan SLC, Inc.) were used for evaluation. In the Tail Flick test, thermal stimulation was applied to the tail of each animal, and the latency (in seconds) of escape reflection moving the tail was measured. The maximum heat application time was set to 10 seconds in order to prevent burns.
The compounds described in the Examples were dissolved or suspended in Captisol to prepare test samples. Then, test samples at appropriately selected concentrations were administered subcutaneously to the animals (10 mL/kg), and the latency of escape reflection was measured. The latency of escape reflection before test sample administration was set as [pre-dose measurement], and the analgesic score (%) was calculated as [([measurement]−[pre-dose measurement])/(10−[pre-dose measurement])]×100.
The ED50 was determined by calculating a dose with an analgesic score of 50%.

[1] = Hairless mouse skin permeation test; assay type: in vitro ADME; design: unit not given here; conditions: hairless mouse (HR-1) skin, horizontal diffusion cell, 37° C., donor 3.84 mmol/L in IPM, N=3
Procedure: (§1) The compounds described in the Examples were dissolved or suspended in isopropyl myristate (IPM) at a concentration of 3.84 mmol/L and the resultant was used.
The frozen skin of a hairless mouse (HR-1 strain, male, 7 weeks old, Japan SLC, Inc.) was thawed at room temperature and, if there was excess subcutaneous fat, the fat was excised with scissors. The horizontal diffusion cell was kept at a constant temperature by flowing water from a thermostatic circulation tank (37° C.) into the external jacket of the cell. The hairless mouse skin was punched out to ϕ24 mm and mounted tightly in the horizontal diffusion cell, 0.9 mL of a receiver solution (McIlvaine buffer containing 40% polyethylene glycol 400) was added to the dermal side (receiver side), and 0.9 mL of a donor solution (the solution or suspension of the compound described in the Example in IPM at a concentration of 3.84 mmol/L) was added to the stratum corneum side (donor side). […]
The compounds in liquids collected in the skin permeation test were quantified. […]
Skin permeation rate (flux, mmol/cm2/hr) and Lag time (hr) were calculated from the slope and X-axis intercept, respectively, of the regression line at steady state from the profile, and used as indicators of skin permeation.

[2] = Dissolution state in isopropyl myristate (IPM); assay type: physicochemical; conditions: concentration of 3.84 mmol/L
Procedure: as §1

Structure (SMILES) | ED50 (mice (C57BL/6JJmsSlc)) [mg/kg] | Flux (skin permeation rate) [1] | Dissolution state in IPM [2]
CN(C)C[C@@H]1COCC[C@H]1c1cccc(O)c1 (racemic) [Example 1, 3-[(3R*,4R*)-3-(Dimethylaminomethyl)tetrahydropyran-4-yl]phenol] | 1.6 | 35.77 | 
CN(C)C[C@@H]1COCC[C@H]1c1cccc(O)c1 (relative stereo) [Example 1, 3-[(3R*,4R*)-3-(Dimethylaminomethyl)tetrahydropyran-4-yl]phenol] |  |  | Dissolved
CN(C)C[C@@H]1CCCC[C@H]1c1cccc(O)c1 [Faxeladol] | 2.7 | 17.14 | Suspended
